Laboratory results reported in patent US20260021154A1, “HERBAL ANTI-INFAMMATORY COMPOSITION” (CIRA HERBALS LLP, priority 2022, published 2026).

Tested on: milk-induced eosinophilia and leukocytosis
Experiment: Milk-induced eosinophilia and leukocytosis in mice
Type: in vivo, Swiss albino mice
Conditions: for Eosinophil (mean ± SD), post-treatment / Total leucocyte count (mean ± SD), post-treatment: 24 h after dosing, p.o. 1 h before boiled and cooled milk 4 ml/kg s.c., polyherbal extract 307 mg/kg, levocetirizine 0.9 mg/kg, fexofenadine 21 mg/kg; for Eosinophil (mean ± SD), pre-treatment / Total leucocyte count (mean ± SD), pre-treatment: before treatment, 6 mice/group
Description: The composition of the present invention was assessed using milk-induced cosinophilia and leukocytosis animal model to evaluate the anti-inflammatory activity.
Injection of milk into mice induces allergy response which in turn causes leucocytosis. Leukocytosis is the condition of having a high number of leukocytes in the blood. Leukocytes are white blood cells. Leukocytosis may be a temporary response to an allergy, infection or an injury as the body is healing naturally, or it can be a sign of disease.
Study was conducted to check the effect of extracts on milk-induced eosinophilia and leukocytosis in mice, by determining the count of eosinophils and leukocytes. For this model, 54 Swiss albino mice weighing in the range of 20-25 gm were used and divided in nine groups (6 mice/group). The eosinophils and leukocyte count was checked before and after treatment i.e. 24 hours after dosing with polyherbal formulation and standard drugs.
All the animals were maintained in the animal house under standard conditions: temperature (24±1° C.), relative humidity (45-55%), light (12 h) and dark (12 h) cycle, and were allowed free access to food and water ad libitum. After one-week acclimatization in the animal house, the animals were used for the experiments.
Polyherbal extract containing Nigella sativa 88 mg/kg, Tinospora cordifolia 158 mg/kg, Petasites hybridus 26 mg/kg and Perilla frutescens 35 mg/kg was suspended in carboxy methyl cellulose. The suspension thus contained 307 mg/kg of the extract.
Similarly, standard drugs levocetirizine and fexofenadine were prepared as per requirement
The treatment of polyherbal extract and standard drug formulation were given orally 1 hour prior to injection of boiled and cooled milk. After 24 hours, blood samples were collected from retro orbital plexus, under ketamine xylazine anesthesia. Total eosinophil and differential leukocyte count per cu·mm was anlysed using hematology analyzer before and after treatment.

Compound | Eosinophil (mean ± SD), post-treatment | Total leucocyte count (mean ± SD), post-treatment | Eosinophil (mean ± SD), pre-treatment | Total leucocyte count (mean ± SD), pre-treatment
CC(C)(C(=O)O)c1ccc(C(O)CCCN2CCC(C(O)(c3ccccc3)c3ccccc3)CC2)cc1 (centres unmarked) [Fexofenadine] | 0.183 ± 0.075 10^3/μL | 6.917 ± 0.436 10^3/μL | 0.17 ± 0.08 10^3/μL | 7.87 ± 0.72 10^3/μL
O=C(O)COCCN1CCN([C@H](c2ccccc2)c2ccc(Cl)cc2)CC1 [Levocetirizine] | 0.167 ± 0.082 10^3/μL | 6.950 ± 1.089 10^3/μL | 0.18 ± 0.08 10^3/μL | 6.95 ± 1.57 10^3/μL
